Measurements from patent US20260193293A1, “PEPTIDES CAPABLE OF INHIBITING PROTEIN-PROTEIN INTERACTIONS AT GABAB1A SUBUNIT AND USES THEREOF” (UNIVERSITY OF COPENHAGEN, priority 2022, published 2026).
Where two headings read alike, the source gives them in different places. Non-standard residues stand in square brackets, D forms with d. Residues, ends and D or L forms follow the SMILES beside them. 2Nal = N[C@@H](Cc1ccc2ccccc2c1)C(=O)O

Assays:
[1] = In vitro plasma stability; details: for remaining at 48 h, 100 µM / half-life: human; for remaining at 48 h, 100 µM / T1/2: human plasma; for half-life: plasma; for T1/2: 37° C.
Procedure: For time-course assay, 360 μL human plasma was pre-warmed up at 37° C. for 15 min and then spiked with 40 μL of tested peptides (1 mM in 1×PBS). […] Subsequently, 100 μL acetonitrile was added into and then samples were incubated overnight at −20° C. After that, all samples were centrifuged at 13,400 rpm for 10 min and the supernatant was filtered and then analyzed by LC-MS and UPLC (Waters). The area under the curve (AUC) was determined and normalized to the value of the first time point. The half-life (T1/2) was obtained by fitting the data to the one-phase decay equation in GraphPad Prism 9 and expressed as the mean of three individual experiments. For end-point assay, 108 μL human plasma was pre-warmed up at 37° C. for 15 min and then spiked with 12 μL of tested peptides (1 mM in 1×PBS).

[2] = molecular target: Sushi domains (SD1/2) protein; assay: Fluorescence polarization (FP) competition assay with AJAP-1probe, calculated Ki; assay type: binding
Procedure, shortened: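 Competition against 25 nM TAMRA-labelled peptide probe binding SD1/2, in PBS pH 7.4 with 1% BSA at rt, read at 530/580 nm. IC50 from sigmoidal dose-response fits, at least triplicate; Ki calculated from IC50 using probe Kd from saturation binding.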

SD1/2 = assay: Solution array of crude APPWT variants, six-point FP inhibition curve; assay type: binding; details: crude peptides of the solution array
Procedure: Parallel synthesis in 96 format peptide synthesis was done using Intavis multipep RSi instrument. Fmoc-PAL resins was used (10 mg per well). Fmoc-amino acids (Fmoc-AA) were dissolved in dimethylformamide (DMF) containing 0.3 M OxymaPure. Throughout the synthesis Fmoc-AA were preactivated with diisopropylcarbodiimide (DIC) for 2 min before adding to the resin. Three couplings using 100 μL Fmoc-AA and 10 μL DIC (3 M in DMF) pr well were employed with coupling times of 5, 15 and 60 min. Removal of Fmoc was performed by washing twice with 120 μl per well of 25% piperidine in DMF for 2 and 8 min. Washing steps after deprotection with piperidine and after coupling steps included washing with DMF (150 μL per well) five times. After synthesis the resins were dried with ethanol and trifluoroacetic acid (TFA) was added using 92% TFA containing 4% triisopropylsilane (TIPS), 1% thioanisol, and 3% H2O for 2 hours. This was done by adding 100 μL per well of the TFA cleavage cocktail over a period of 30 min adding up to a total volume of 1 mL to each well. TFA was then reduced in volume to approximately 100-150 μL by N2 flow and peptides were precipitated by the addition 800 μL of diethylether to each well. The peptides were transferred to Waters solvinert plates and washed thoroughly five times with diethylether 500 μL per well. After washing, the peptides were dried and then dissolved in 80% DMSO. Characterization was performed by UPLC-MS on a setup consisting of a Waters Acquity UPLC system connected to an LCT Premier XE mass spectrometer from Micromass using solvent A 0.1% TFA in H2O and solvent B 0.1% TFA in CH3CN.
We synthesized additional positional scanning array (termed solution array) of APPWT using the conventional on-resin SPPS strategy in 96-well plates. This solution array contained 268 peptides (including two wild type peptides). […] Taking advantage of the high purity of this peptide array, we generated six-point FP inhibition curve of each peptide and the obtained dose response curves enabled us to calculate the binding affinity (Ki) of each peptide variant (data not shown).

[3] = Table 14, CPPs tagged peptides, read-out: Ki (nM) mean ± SEM
[4] = purified peptides, read-out: Ki
[5] = CPP tagged peptides overview, SD1/2 binding affinity, mean ± SEM, n ≥ 3, read-out: Ki
[6] = Table 1, affinity maturation, mean ± SEM, n ≥ 3, read-out: Ki

For CC[C@H](C)[C@H](NC(=O)[C@H](Cc1c[nH]c2ccccc12)NC(=O)[C@H](CC(=O)O)NC(=O)[C@H](CC(=O)O)NC(=O)[C@H](CC(=O)O)NC(=O)[C@H](CCC(=O)O)NC(=O)[C@H](CCCNC(=N)N)NC(=O)[C@H](CCCNC(=N)N)NC(=O)[C@H](CCCNC(=N)N)NC(C)=O)C(=O)N[C@@H](CC(=O)O)C(=O)N[C@@H](Cc1c[nH]c2ccccc12)C(=O)N[C@@H](Cc1ccc(O)cc1)C(=O)N[C@@H](CC(=O)O)C(=O)N[C@@H](CO)C(=O)N[C@@H](CC(=O)O)C(=O)N[C@@H](CC(=O)O)C(=O)N[C@@H](CC(=O)O)C(N)=O [Peptide R3-16] (Ac-RRREDDDWIDWYDSDDD-NH2), the remaining at 48 h, 100 µM [1] was roughly 80% and the Ki [2, 3] was 6.4 ± 0.1 nM.

In the case of CC[C@H](C)[C@H](NC(=O)[C@H](C)NC(=O)[C@H](Cc1c[nH]c2ccccc12)NC(=O)[C@@H]1CCCN1C(C)=O)C(=O)N[C@H](C(=O)N[C@@H](Cc1c[nH]c2ccccc12)C(=O)NCC(=O)N1CCC[C@H]1C(=O)N[C@H](C(=O)N[C@H](C(=O)N[C@@H](CO)C(=O)N[C@@H](CCCNC(=N)N)C(=O)N[C@@H](CCC(=O)O)C(=O)N[C@@H](CC(=O)O)C(N)=O)C(C)C)[C@@H](C)O)C(C)C [PIANPWT, Ac-PWAIVWGPTVSRED-NH2] (Ac-PWAIVWGPTVSRED-NH2), the half-life [1] is reported as 16 h and the Ki [2, 4] is reported as 476 ± 19 nM.

CC[C@H](C)[C@H](NC(=O)[C@H](Cc1c[nH]c2ccccc12)NC(=O)[C@H](CC(=O)O)NC(=O)[C@H](CC(=O)O)NC(=O)[C@H](CC(=O)O)NC(=O)[C@H](CCC(=O)O)NC(C)=O)C(=O)N[C@@H](CC(=O)O)C(=O)N[C@@H](Cc1c[nH]c2ccccc12)C(=O)NCC(=O)N1CCC[C@H]1C(=O)N[C@H](C(=O)N[C@@H](CO)C(=O)N[C@@H](CC(=O)O)C(=O)N[C@@H](CC(=O)O)C(=O)N[C@@H](CC(=O)O)C(N)=O)[C@@H](C)O [Peptide 17] (Ac-EDDDWIDWGPTSDDD-NH2) gave a half-life [1] greater than 48 h, a Ki [2, 5] of 4 ± 0.3 nM and a Ki [2, 6] of 4 ± 0.3 nM. For the same compound, the Ki ([2]; Table 13, peptides for affinity maturation, read-out: Ki (nM) mean ± SEM) was 4 ± 0.3 nM.

For CC[C@H](C)[C@H](NC(=O)[C@H](Cc1ccc2ccccc2c1)NC(=O)[C@H](CC(=O)O)NC(=O)[C@H](CC(=O)O)NC(=O)[C@H](CC(=O)O)NC(=O)[C@H](CCC(=O)O)NC(=O)[C@H](CCCNC(=N)N)NC(=O)[C@H](CCCNC(=N)N)NC(=O)[C@H](CCCNC(=N)N)NC(=O)[C@H](CCCNC(=N)N)NC(C)=O)C(=O)N[C@@H](CC(=O)O)C(=O)N[C@@H](Cc1c[nH]c2ccccc12)C(=O)NCC(=O)N1CCC[C@H]1C(=O)N[C@H](C(=O)N[C@@H](CO)C(=O)N[C@@H](CC(=O)O)C(=O)N[C@@H](CC(=O)O)C(=O)N[C@@H](CC(=O)O)C(N)=O)[C@@H](C)O [Peptide R4-21] (Ac-RRRREDDD[2Nal]IDWGPTSDDD-NH2), the “T1/2” value [1] was greater than 48 h, the half-life [1] was greater than 48 h and the Ki [2, 5] was 13 ± 1 nM. It also gave a Ki [2, 3] of 13 ± 1 nM.

CC[C@H](C)[C@H](NC(=O)[C@H](Cc1c[nH]c2ccccc12)NC(=O)[C@H](CC(=O)O)NC(=O)[C@H](CC(=O)O)NC(=O)[C@H](CC(=O)O)NC(=O)[C@H](CCC(=O)O)NC(=O)[C@H](CCCNC(=N)N)NC(=O)[C@H](CCCNC(=N)N)NC(=O)[C@H](CCCNC(=N)N)NC(=O)[C@H](CCCNC(=N)N)NC(=O)[C@H](CCCNC(=N)N)NC(=O)[C@H](CCCNC(=N)N)NC(=O)[C@H](CCCNC(=N)N)NC(=O)[C@H](CCCNC(=N)N)NC(C)=O)C(=O)N[C@@H](CC(=O)O)C(=O)N[C@@H](Cc1c[nH]c2ccccc12)C(=O)NCC(=O)N1CCC[C@H]1C(=O)N[C@H](C(=O)N[C@@H](CO)C(=O)N[C@@H](CC(=O)O)C(=O)N[C@@H](CC(=O)O)C(=O)N[C@@H](CC(=O)O)C(N)=O)[C@@H](C)O [Peptide R8-17] (Ac-RRRRRRRREDDDWIDWGPTSDDD-NH2) showed a remaining at 48 h, 100 µM [1] of roughly 50%, a half-life [1] greater than 48 h and a Ki [2, 5] of 58 ± 3 nM. It also gave a Ki [2, 3] of 58.1 ± 3 nM.

For CC[C@H](C)[C@H](NC(=O)[C@H](Cc1ccc2ccccc2c1)NC(=O)[C@H](CC(=O)O)NC(=O)[C@H](CC(=O)O)NC(=O)[C@H](CC(=O)O)NC(=O)[C@H](CCC(=O)O)NC(=O)[C@H](CCCNC(=N)N)NC(=O)[C@H](CCCNC(=N)N)NC(=O)[C@H](CCCNC(=N)N)NC(=O)[C@H](CCCNC(=N)N)NC(C)=O)C(=O)N[C@@H](CC(=O)O)C(=O)N[C@@H](Cc1c[nH]c2ccccc12)C(=O)N[C@@H](Cc1ccc(O)cc1)C(=O)N[C@@H](CC(=O)O)C(=O)N[C@@H](CO)C(=O)N[C@@H](CC(=O)O)C(=O)N[C@@H](CC(=O)O)C(=O)N[C@@H](CC(=O)O)C(N)=O [Peptide R4-20] (Ac-RRRREDDD[2Nal]IDWYDSDDD-NH2), the “T1/2” value [1] was greater than 48 h, the half-life [1] was greater than 48 h and the “fold higher affinity than 4R-16” value ([2]; 4R tagged peptides) was “about 2 fold”. The Ki [2, 5] was 12 ± 1 nM and the Ki [2, 3] was 15 ± 1 nM.

In the case of CC[C@H](C)[C@H](NC(=O)[C@H](Cc1c[nH]c2ccccc12)NC(=O)[C@H](CC(=O)O)NC(=O)[C@H](CC(=O)O)NC(=O)[C@H](CC(=O)O)NC(=O)[C@H](CCC(=O)O)NC(=O)[C@H](CCCNC(=N)N)NC(=O)[C@H](CCCNC(=N)N)NC(=O)[C@H](CCCNC(=N)N)NC(=O)[C@H](CCCNC(=N)N)NC(=O)[C@H](CCCNC(=N)N)NC(=O)[C@H](CCCNC(=N)N)NC(=O)[C@H](CCCNC(=N)N)NC(=O)[C@H](CCCNC(=N)N)NC(C)=O)C(=O)N[C@@H](CC(=O)O)C(=O)N[C@@H](Cc1c[nH]c2ccccc12)C(=O)N[C@@H](Cc1ccc(O)cc1)C(=O)N[C@@H](CC(=O)O)C(=O)N[C@@H](CO)C(=O)N[C@@H](CC(=O)O)C(=O)N[C@@H](CC(=O)O)C(=O)N[C@@H](CC(=O)O)C(N)=O [Peptide R8-16] (Ac-RRRRRRRREDDDWIDWYDSDDD-NH2), the remaining at 48 h, 100 µM [1] is reported as roughly 50%, the half-life [1] is reported as greater than 48 h and the Ki [2, 5] is reported as 107 ± 1 nM. For the same compound, the Ki [2, 3] was 107 ± 2 nM.

Compound CC[C@H](C)[C@H](NC(=O)[C@H](Cc1c[nH]c2ccccc12)NC(=O)[C@H](CC(=O)O)NC(=O)[C@H](CC(=O)O)NC(=O)[C@H](CC(=O)O)NC(=O)[C@H](CCC(=O)O)NC(=O)[C@H](CCCNC(=N)N)NC(=O)[C@H](CCCNC(=N)N)NC(=O)[C@H](CCCNC(=N)N)NC(C)=O)C(=O)N[C@@H](CC(=O)O)C(=O)N[C@@H](Cc1c[nH]c2ccccc12)C(=O)NCC(=O)N1CCC[C@H]1C(=O)N[C@H](C(=O)N[C@@H](CO)C(=O)N[C@@H](CC(=O)O)C(=O)N[C@@H](CC(=O)O)C(=O)N[C@@H](CC(=O)O)C(N)=O)[C@@H](C)O [Peptide R3-17] (Ac-RRREDDDWIDWGPTSDDD-NH2) has a remaining at 48 h, 100 µM [1] of roughly 80% and a Ki [2, 3] of 9 ± 0.2 nM.

With CC[C@H](C)[C@H](NC(=O)[C@H](Cc1ccc2ccccc2c1)NC(=O)[C@H](CC(=O)O)NC(=O)[C@H](CC(=O)O)NC(=O)[C@H](CC(=O)O)NC(=O)[C@H](CCC(=O)O)NC(C)=O)C(=O)N[C@@H](CC(=O)O)C(=O)N[C@@H](Cc1c[nH]c2ccccc12)C(=O)NCC(=O)N1CCC[C@H]1C(=O)N[C@H](C(=O)N[C@@H](CO)C(=O)N[C@@H](CC(=O)O)C(=O)N[C@@H](CC(=O)O)C(=O)N[C@@H](CC(=O)O)C(N)=O)[C@@H](C)O [Peptide 21] (Ac-EDDD[2Nal]IDWGPTSDDD-NH2) the half-life [1] was greater than 48 h, the Ki [2, 5] was 5.3 ± 0.2 nM and the Ki [2, 6] was 5.3 ± 0.2 nM. For the same compound, the Ki ([2]; Table 16, ncAAs incorporated peptides, read-out: Ki (nM) mean ± SEM) was 5.3 ± 0.2 nM.

CC(=O)N[C@@H](CCC(=O)O)C(=O)N[C@@H](CC(=O)O)C(=O)N[C@@H](CC(=O)O)C(=O)N[C@@H](CO)C(=O)N[C@@H](Cc1c[nH]c2ccccc12)C(=O)N[C@H](C(=O)N[C@@H](Cc1c[nH]c2ccccc12)C(=O)N[C@@H](Cc1c[nH]c2ccccc12)C(=O)NCC(=O)NCC(=O)N[C@@H](C)C(=O)N[C@@H](CC(=O)O)C(=O)N[C@H](C(=O)N[C@@H](CC(=O)O)C(N)=O)[C@@H](C)O)C(C)C (Ac-EDDSWVWWGGADTD-NH2) gave a Ki (SD1/2) of 78 nM and a Ki [2, 4] of 100 nM.

For CC(=O)N[C@@H](CCC(=O)O)C(=O)N[C@@H](CC(=O)O)C(=O)N[C@@H](CC(=O)O)C(=O)N[C@@H](CO)C(=O)N[C@@H](CC(=O)O)C(=O)N[C@H](C(=O)N[C@@H](Cc1c[nH]c2ccccc12)C(=O)N[C@@H](Cc1c[nH]c2ccccc12)C(=O)N[C@@H](Cc1ccc(O)cc1)C(=O)NCC(=O)N[C@@H](C)C(=O)N[C@@H](CC(=O)O)C(=O)N[C@H](C(=O)N[C@@H](CC(=O)O)C(N)=O)[C@@H](C)O)C(C)C (Ac-EDDSDVWWYGADTD-NH2), the Ki (SD1/2) was 167 nM and the Ki ([2]; Table 10, deep mutational scanning validation variants of APPWT, read-out: Ki (nM) mean ± SEM) was 108 ± 1 nM.
